We go through 5 compounds from patent US20240185945A1, “SYSTEMS AND METHODS FOR MODELING AND DISPLAYING SWEETENER SYNERGY” (WM. WRIGLEY JR. COMPANY, priority 2022, published 2024).

The target of the assay is T1, sweet taste receptor (Homo sapiens, UniProt Q7RTX0+Q8TE23).
T1 sequence (Q8TE23 20-839): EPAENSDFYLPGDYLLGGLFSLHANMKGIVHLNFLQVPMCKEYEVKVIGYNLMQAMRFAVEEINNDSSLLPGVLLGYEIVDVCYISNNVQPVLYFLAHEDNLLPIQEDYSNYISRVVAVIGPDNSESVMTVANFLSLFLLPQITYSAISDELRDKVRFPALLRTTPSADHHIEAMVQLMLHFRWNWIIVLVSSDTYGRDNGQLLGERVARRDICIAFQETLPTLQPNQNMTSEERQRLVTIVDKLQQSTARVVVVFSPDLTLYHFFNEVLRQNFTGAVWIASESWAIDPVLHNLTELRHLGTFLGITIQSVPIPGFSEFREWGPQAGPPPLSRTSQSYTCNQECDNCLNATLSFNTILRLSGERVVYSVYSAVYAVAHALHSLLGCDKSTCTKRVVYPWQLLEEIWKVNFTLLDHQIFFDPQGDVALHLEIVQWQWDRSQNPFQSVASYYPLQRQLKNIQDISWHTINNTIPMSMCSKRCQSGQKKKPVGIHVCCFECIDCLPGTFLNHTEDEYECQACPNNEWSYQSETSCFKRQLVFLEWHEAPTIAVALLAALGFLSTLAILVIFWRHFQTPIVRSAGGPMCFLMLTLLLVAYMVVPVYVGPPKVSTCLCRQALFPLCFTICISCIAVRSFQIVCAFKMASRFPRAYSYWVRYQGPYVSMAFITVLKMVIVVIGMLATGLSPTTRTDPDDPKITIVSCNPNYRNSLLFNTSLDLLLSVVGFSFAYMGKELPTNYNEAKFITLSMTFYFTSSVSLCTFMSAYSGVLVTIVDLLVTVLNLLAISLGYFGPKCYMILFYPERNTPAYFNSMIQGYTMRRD
T1 sequence (Q7RTX0 21-852): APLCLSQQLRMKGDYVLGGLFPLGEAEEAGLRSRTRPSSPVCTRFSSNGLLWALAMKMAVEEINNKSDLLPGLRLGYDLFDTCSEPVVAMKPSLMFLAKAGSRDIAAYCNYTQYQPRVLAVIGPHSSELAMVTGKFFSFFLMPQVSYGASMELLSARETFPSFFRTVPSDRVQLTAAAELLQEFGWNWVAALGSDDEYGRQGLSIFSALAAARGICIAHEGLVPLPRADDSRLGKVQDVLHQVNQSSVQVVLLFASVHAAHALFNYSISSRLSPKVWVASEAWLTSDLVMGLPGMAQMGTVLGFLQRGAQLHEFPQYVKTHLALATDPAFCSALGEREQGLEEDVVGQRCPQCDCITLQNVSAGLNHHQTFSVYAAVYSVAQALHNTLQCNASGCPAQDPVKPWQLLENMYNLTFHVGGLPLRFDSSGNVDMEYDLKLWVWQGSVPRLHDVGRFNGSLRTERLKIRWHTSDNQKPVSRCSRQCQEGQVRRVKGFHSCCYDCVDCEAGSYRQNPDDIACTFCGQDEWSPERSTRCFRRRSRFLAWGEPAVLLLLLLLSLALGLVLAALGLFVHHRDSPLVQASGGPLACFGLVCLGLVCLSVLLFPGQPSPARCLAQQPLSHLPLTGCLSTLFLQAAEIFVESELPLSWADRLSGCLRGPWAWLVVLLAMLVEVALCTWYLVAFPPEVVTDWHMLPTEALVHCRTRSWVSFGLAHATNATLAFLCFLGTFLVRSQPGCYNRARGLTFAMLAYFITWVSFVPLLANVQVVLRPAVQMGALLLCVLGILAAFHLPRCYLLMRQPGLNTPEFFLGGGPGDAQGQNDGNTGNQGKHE
Put plainly: Synergy effects (sweet taste receptor signal increase) in binary compound mixtures. Type of assay: cell-based. The following applies: calculated as L(X&Y)/(L(X)+L(Y)); for Synergy effect observed in binary compound mixture with Aspartame: partner Aspartame; for Synergy effect observed in binary compound mixture with Thaumatin: partner Thaumatin; for Synergy effect observed in binary compound mixture with NHDC: partner NHDC; for Synergy effect observed in binary compound mixture with sucralose: partner sucralose; for Synergy effect observed in binary compound mixture with sucrose: partner sucrose; for Synergy effect observed in binary compound mixture with Reb A: partner Reb A. How it is done: The present example describes sweet taste receptor signal increases calculated for the following sweeteners: aspartame, sucrose, sucralose, rebaudioside A, rebaudioside D, thaumatin, NHDC, and S819 are present in various combinations in a binary mixture as shown in Table 1.
Synergy between binary mixtures of the sweeteners was calculated as following: L(X&Y)/(L(X)+L(Y)).

As to `COc1ccc(CCC(=O)c2c(O)cc(O[C@@H]3O[C@H](CO)[C@@H](O)[C@H](O)[C@H]3O[C@@H]3O[C@@H](C)[C@H](O)[C@@H](O)[C@H]3O)cc2O)cc1O` [NHDC], the “Synergy effect observed in binary compound mixture with Aspartame” value is 0.5 and the “Synergy effect observed in binary compound mixture with Thaumatin” value is listed as 0.06.
In the case of `C=C1C[C@@]23CC[C@H]4[C@@](C)(CCC[C@@]4(C)C(=O)O[C@@H]4O[C@H](CO)[C@@H](O)[C@H](O)[C@H]4O)[C@@H]2CC[C@]1(O[C@@H]1O[C@H](CO)[C@@H](O)[C@H](O[C@@H]2O[C@H](CO)[C@@H](O)[C@H](O)[C@H]2O)[C@H]1O[C@@H]1O[C@H](CO)[C@@H](O)[C@H](O)[C@H]1O)C3` [Reb A, Rebaudioside A], the “Synergy effect observed in binary compound mixture with NHDC” value is 0.25, the “Synergy effect observed in binary compound mixture with sucralose” value was 0.3 and the “Synergy effect observed in binary compound mixture with sucrose” value is 0.5.
Regarding `C=C1C[C@@]23CC[C@H]4[C@@](C)(CCC[C@@]4(C)C(=O)O[C@@H]4O[C@H](CO)[C@@H](O)[C@H](O)[C@H]4O[C@@H]4O[C@H](CO)[C@@H](O)[C@H](O)[C@H]4O)[C@@H]2CC[C@]1(O[C@@H]1O[C@H](CO)[C@@H](O)[C@H](O[C@@H]2O[C@H](CO)[C@@H](O)[C@H](O)[C@H]2O)[C@H]1O[C@@H]1O[C@H](CO)[C@@H](O)[C@H](O)[C@H]1O)C3` [Reb D, Rebaudioside D], the “Synergy effect observed in binary compound mixture with sucralose” value is recorded as 0.3 and the “Synergy effect observed in binary compound mixture with sucrose” value is 0.25.
For the compound `CC(C)Oc1ccc(NC(=S)NCc2ccc[nH]2)cc1` [S819, 1-((1H-pyrrol-2-yl)methyl)-3-(4-isopropoxyphenyl)thiourea], the “Synergy effect observed in binary compound mixture with NHDC” value is 0.4, the “Synergy effect observed in binary compound mixture with Reb A” value is 0.25 and the “Synergy effect observed in binary compound mixture with Thaumatin” value is 0.4.
As for Thaumatin, the “Synergy effect observed in binary compound mixture with Aspartame” value is 0.5 and the “Synergy effect observed in binary compound mixture with Reb A” value is on record as 0.4.
